Source: ChEMBL document CHEMBL3774317, “Design and synthesis of novel tamoxifen analogues that avoid CYP2D6 metabolism” (Eur J Med Chem, 2016)

How the values were obtained:
Type in all cases: functional
A549 = experiment: Cytotoxicity against human A549 cells assessed as cell growth at 50 nM after 48 hrs by SRB assay; conditions: A549, 48 h, read-out: Activity
NCI-H322M = experiment: Cytotoxicity against human NCI-H322M cells assessed as cell growth at 50 nM after 48 hrs by SRB assay; conditions: read-out: Activity
[1] = Cytotoxicity against human COLO205 cells assessed as cell growth at 50 nM after 48 hrs by SRB assay; conditions: COLO 205, 48 h, read-out: Activity
[2] = Cytotoxicity against human HCC2998 cells assessed as cell growth at 50 nM after 48 hrs by SRB assay; conditions: HCC 2998, 48 h, read-out: Activity
[3] = Cytotoxicity against human OVCAR4 cells assessed as cell growth at 50 nM after 48 hrs by SRB assay; conditions: OVCAR-4, 48 h, read-out: Activity
ACHN [4] = experiment: Cytotoxicity against human ACHN cells assessed as cell growth at 50 nM after 48 hrs by SRB assay; conditions: read-out: Activity
[5] = Cytotoxicity against human TK10 cells assessed as cell growth at 50 nM after 48 hrs by SRB assay; conditions: TK-10, 48 h, read-out: Activity
[6] = Cytotoxicity against human Hs 578T cells assessed as cell growth at 50 nM after 48 hrs by SRB assay; conditions: read-out: Activity
MDA-MB-468 [7] = experiment: Cytotoxicity against human MDA-MB-468 cells assessed as cell growth at 50 nM after 48 hrs by SRB assay; conditions: MDA-MB-468, 48 h, read-out: Activity
K562 = experiment: Cytotoxicity against human K562 cells assessed as cell growth at 0.5 uM after 48 hrs by SRB assay; conditions: K562, 48 h, read-out: Activity
EKVX [8] = experiment: Cytotoxicity against human EKVX cells assessed as cell growth at 0.5 uM after 48 hrs by SRB assay; conditions: read-out: Activity
[9] = Cytotoxicity against human HCT15 cells assessed as cell growth at 0.5 uM after 48 hrs by SRB assay; conditions: HCT-15, 48 h, read-out: Activity
[10] = Cytotoxicity against human SW620 cells assessed as cell growth at 0.5 uM after 48 hrs by SRB assay; conditions: SW-620, 48 h, read-out: Activity
[11] = Cytotoxicity against human SNB19 cells assessed as cell growth at 0.5 uM after 48 hrs by SRB assay; conditions: SNB-19, 48 h, read-out: Activity
U-251 = experiment: Cytotoxicity against human U251 cells assessed as cell growth at 0.5 uM after 48 hrs by SRB assay; conditions: U-251, 48 h, read-out: Activity
MDA-MB-468 [12] = experiment: Cytotoxicity against human MDA-MB-468 cells assessed as cell growth at 0.5 uM after 48 hrs by SRB assay; conditions: MDA-MB-468, 48 h, read-out: Activity
[13] = Cytotoxicity against human SF539 cells assessed as cell growth at 5 nM after 48 hrs by SRB assay; conditions: SF-539, 48 h, read-out: Activity
[14] = Cytotoxicity against human OVCAR8 cells assessed as cell growth at 5 nM after 48 hrs by SRB assay; conditions: OVCAR-8, 48 h, read-out: Activity
786-0 [15] = experiment: Cytotoxicity against human 786-0 cells assessed as cell growth at 5 nM after 48 hrs by SRB assay; conditions: 786-0, 48 h, read-out: Activity
[16] = Cytotoxicity against human SKOV3 cells assessed as cell growth at 5 uM after 48 hrs by SRB assay; conditions: SK-OV-3, 48 h, read-out: Activity
ACHN [17] = experiment: Cytotoxicity against human ACHN cells assessed as cell growth at 5 uM after 48 hrs by SRB assay; conditions: read-out: Activity
[18] = Cytotoxicity against human UO31 cells assessed as cell growth at 5 uM after 48 hrs by SRB assay; conditions: UO-31, 48 h, read-out: Activity
NCI-H226 = experiment: Cytotoxicity against human NCI-H226 cells assessed as cell growth at 50 uM after 48 hrs by SRB assay; conditions: NCI-H226, 48 h, read-out: Activity
[19] = Cytotoxicity against human HCT116 cells assessed as cell growth at 50 uM after 48 hrs by SRB assay; conditions: HCT-116, 48 h, read-out: Activity
[20] = Cytotoxicity against human HCT15 cells assessed as cell growth at 50 uM after 48 hrs by SRB assay; conditions: HCT-15, 48 h, read-out: Activity
786-0 [21] = experiment: Cytotoxicity against human 786-0 cells assessed as cell growth at 10^-7 M after 48 hrs by SRB assay; conditions: 786-0, 48 h, read-out: Activity
[22] = Cytotoxicity against human MOLT4 cells assessed as cell growth at 10^-6 M after 48 hrs by SRB assay; conditions: MOLT-4, 48 h, read-out: Activity
A498 = experiment: Cytotoxicity against human A498 cells assessed as cell growth at 10^-4 M after 48 hrs by SRB assay; conditions: A498, 48 h, read-out: Activity
[23] = Cytotoxicity against human RPMI8226 cells assessed as cell growth at 10^-8 M after 48 hrs by SRB assay; conditions: RPMI-8226, 48 h, read-out: Activity
[24] = Cytotoxicity against human LOXIMVI cells assessed as cell growth at 10^-6 M after 48 hrs by SRB assay; conditions: LOX IMVI, read-out: Activity
[25] = Cytotoxicity against human OVCAR5 cells assessed as cell growth at 10^-6 M after 48 hrs by SRB assay; conditions: OVCAR-5, 48 h, read-out: Activity
786-0 [26] = experiment: Cytotoxicity against human 786-0 cells assessed as cell growth at 10^-6 M after 48 hrs by SRB assay; conditions: 786-0, 48 h, read-out: Activity
[27] = Cytotoxicity against human HL-60(TB) cells assessed as cell growth at 10^-5 M after 48 hrs by SRB assay; conditions: HL-60, 48 h, read-out: Activity
[28] = Cytotoxicity against human HOP92 cells assessed as cell growth at 10^-5 M after 48 hrs by SRB assay; conditions: HOP-92, 48 h, read-out: Activity
[29] = Cytotoxicity against human SF539 cells assessed as cell growth at 10^-8 M after 48 hrs by SRB assay; conditions: SF-539, 48 h, read-out: Activity
[30] = Cytotoxicity against human OVCAR5 cells assessed as cell growth at 10^-8 M after 48 hrs by SRB assay; conditions: OVCAR-5, 48 h, read-out: Activity
[31] = Cytotoxicity against human HL-60(TB) cells assessed as cell growth at 10^-4 M after 48 hrs by SRB assay; conditions: HL-60, 48 h, read-out: Activity
EKVX [32] = experiment: Cytotoxicity against human EKVX cells assessed as cell growth at 10^-4 M after 48 hrs by SRB assay; conditions: read-out: Activity
[33] = Cytotoxicity against human COLO205 cells assessed as cell growth at 10^-4 M after 48 hrs by SRB assay; conditions: COLO 205, 48 h, read-out: Activity
[34] = Cytotoxicity against human HCT15 cells assessed as cell growth at 10^-4 M after 48 hrs by SRB assay; conditions: HCT-15, 48 h, read-out: Activity
M14 = experiment: Cytotoxicity against human M14 cells assessed as cell growth at 10^-4 M after 48 hrs by SRB assay; conditions: M14, 48 h, read-out: Activity
[35] = Cytotoxicity against human UACC62 cells assessed as cell growth at 10^-4 M after 48 hrs by SRB assay; conditions: UACC-62, 48 h, read-out: Activity

**Q.** Which growth at 0.05 µM (A549) does the source give for `CCCCCCCCCC(=O)Oc1ccc(/C(=C(/C)c2ccccc2)c2ccc(OCCN3CCCC3)cc2)cc1` here?
**A.** 102%

**Q.** What about the growth at 0.05 µM (NCI-H322M) of the same compound?
**A.** 93%

**Q.** And the growth at 0.05 µM [1]?
**A.** 96%

**Q.** What about the growth at 0.05 µM [2] of the same compound?
**A.** 98%

**Q.** And the growth at 0.05 µM [3]?
**A.** 92%

**Q.** What about the growth at 0.05 µM (ACHN [4]) of the same compound?
**A.** 96%

**Q.** What about the growth at 0.05 µM [5] of the same compound?
**A.** 97%

**Q.** What about the growth at 0.05 µM [6] of the same compound?
**A.** 92%

**Q.** And the growth at 0.05 µM (MDA-MB-468 [7])?
**A.** 100%

**Q.** And the growth at 0.5 µM (K562)?
**A.** 34%

**Q.** What about the growth at 0.5 µM (EKVX [8]) of the same compound?
**A.** 78%

**Q.** And the growth at 0.5 µM [9]?
**A.** 58%

**Q.** What about the growth at 0.5 µM [10] of the same compound?
**A.** 88%

**Q.** What about the growth at 0.5 µM [11] of the same compound?
**A.** 87%

**Q.** What about the growth at 0.5 µM (U-251) of the same compound?
**A.** 67%

**Q.** What about the growth at 0.5 µM (MDA-MB-468 [12]) of the same compound?
**A.** 69%

**Q.** And the growth at 0.005 µM [13]?
**A.** 105%

**Q.** What about the growth at 0.005 µM [14] of the same compound?
**A.** 102%

**Q.** And the growth at 0.005 µM (786-0 [15])?
**A.** 102%

**Q.** And the growth at 5 µM [16]?
**A.** 78%

**Q.** What about the growth at 5 µM (ACHN [17]) of the same compound?
**A.** 88%

**Q.** What about the growth at 5 µM [18] of the same compound?
**A.** 70%

**Q.** What about the growth at 50 µM (NCI-H226) of the same compound?
**A.** -74%

**Q.** And the growth at 50 µM [19]?
**A.** -87%

**Q.** What about the growth at 50 µM [20] of the same compound?
**A.** -100%

**Q.** With `C/C(=C(/c1ccc(O)cc1)c1ccc(OCCN2CCCC2)cc1)c1ccccc1` as the compound, how does the growth at 0.1 µM (786-0 [21]) read?
**A.** 99%

**Q.** And the growth at 1 µM [22]?
**A.** 92%

**Q.** And the growth at 100 µM (A498)?
**A.** -82%

**Q.** What about the growth at 0.01 µM [23] of the same compound?
**A.** 103%

**Q.** And the growth at 1 µM [24]?
**A.** 92%

**Q.** What about the growth at 1 µM [25] of the same compound?
**A.** 85%

**Q.** What about the growth at 1 µM (786-0 [26]) of the same compound?
**A.** 89%

**Q.** And the growth at 10 µM [27]?
**A.** -39%

**Q.** And the growth at 10 µM [28]?
**A.** -13%

**Q.** And the growth at 0.01 µM [29]?
**A.** 89%

**Q.** And the growth at 0.01 µM [30]?
**A.** 88%

**Q.** What about the growth at 100 µM [31] of the same compound?
**A.** -69%

**Q.** What about the growth at 100 µM (EKVX [32]) of the same compound?
**A.** -100%

**Q.** And the growth at 100 µM [33]?
**A.** -82%

**Q.** And the growth at 100 µM [34]?
**A.** -100%

**Q.** What about the growth at 100 µM (M14) of the same compound?
**A.** -96%

**Q.** What about the growth at 100 µM [35] of the same compound?
**A.** -79%
